ChEMBL document CHEMBL5252625, “Development of sulfonium tethered peptides conjugated with HDAC inhibitor to improve selective toxicity for cancer cells” (Bioorg Med Chem, 2023)
Calls of active or inactive are those of the source. The calls are words filed in the database; no cut-off is given here. Non-standard residues stand in square brackets, D forms with d. Residues, ends and D or L forms follow the SMILES beside them. *: point of attachment. Ahx = NCCCCCC(=O)O; NHOH = ON*

Assays:
Histone deacetylase = assay: Inhibition of HDAC in human HeLa cell extracts using Boc-Lys(Ac)-AM as substrate by fluorescence based analysis
[1] = target: T1, Histone deacetylase (Homo sapiens) (UniProt Q13547+O15379+Q9UBN7+Q92769+Q9UQL6+Q8WUI4+Q9BY41+Q96DB2+P56524+Q9UKV0+Q969S8); assay: Inhibition of HDAC in human HepG2 cells assessed as increase in histone H3 acetylation at 20 to 40 uM incubated for 24 hrs by Western blot analysis; format: cell-based; details: dose 20-40 µM
Huh-7 [2] = assay: Induction of apoptosis in human Huh-7 cells assessed as late apoptotic cells at 20 uM incubated for 24 hrs by FITC Annexin V/propidium iodide staining based flow cytometry analysis (reference value: 5.19%); format: functional
Huh-7 [3] = assay: Induction of cell cycle arrest in human Huh-7 cells assessed as accumulation of cells at G2 phase at 20 uM incubated for 24 hrs by FACscan flow cytometer analysis (reference value: 25.74%); format: functional
Huh-7 [4] = assay: Anticancer activity in human Huh-7 cells assessed as change in BCL2L11gene expression by KEGG analysis; format: functional, cell-based
Huh-7 [5] = assay: Induction of cell cycle arrest in human Huh-7 cells assessed as accumulation of cells at S phase at 20 uM incubated for 24 hrs by FACscan flow cytometer analysis (reference value: 41.7%); format: functional
Huh-7 [6] = assay: Induction of apoptosis in human Huh-7 cells assessed as necrotic cells at 20 uM incubated for 24 hrs by FITC Annexin V/propidium iodide staining based flow cytometry analysis (reference value: 0.401%); format: functional
Huh-7 [7] = assay: Induction of apoptosis in human Huh-7 cells assessed as early apoptotic cells at 20 uM incubated for 24 hrs by FITC Annexin V/propidium iodide staining based flow cytometry analysis (reference value: 1.85%); format: functional
[8] = Stability in mouse serum measured upto 24 hrs by LC/MS analysis; format: ADME, cell-free
HT-29 = assay: Antiproliferative activity against human HT-29 cells incubated for 48 hrs by CCK8 method; format: functional, cell-based; details: HT-29, 48 h
Huh-7 [9] = assay: Induction of cell cycle arrest in human Huh-7 cells assessed as accumulation of cells at sub G1 phase at 20 uM incubated for 24 hrs by FACscan flow cytometer analysis relative to control; format: functional
Huh-7 [10] = assay: Antiproliferative activity against human Huh-7 cells incubated for 48 hrs by CCK8 method; format: functional, cell-based; details: Huh-7, 48 h
Huh-7 [11] = assay: Induction of cell cycle arrest in human Huh-7 cells assessed as accumulation of cells at G1 phase at 20 uM incubated for 24 hrs by FACscan flow cytometer analysis (reference value: 39.68%); format: functional
Huh-7 [12] = assay: Anticancer activity in human Huh-7 cells assessed as change in BMP4 gene expression by KEGG analysis; format: functional, cell-based
Huh-7 [13] = assay: Anticancer activity in human Huh-7 cells assessed as change in BMP2 gene expression by KEGG analysis; format: functional, cell-based
Huh-7 [14] = assay: Induction of apoptosis in human Huh-7 cells assessed as viable cells at 20 uM incubated for 24 hrs by FITC Annexin V/propidium iodide staining based flow cytometry analysis (reference value: 92.6%); format: functional; details: read-out: Activity
Huh-7 [15] = assay: Anticancer activity in human Huh-7 cells assessed as change in JAK2 gene expression by KEGG analysis; format: functional, cell-based
[16] = target: T1, Histone deacetylase (Homo sapiens); assay: Inhibition of HDAC in human Huh-7 cells assessed as increase in histone H3 acetylation at 20 to 40 uM incubated for 24 hrs by Western blot analysis; format: cell-based; details: dose 20-40 µM
HepG2 = assay: Antiproliferative activity against human HepG2 cells incubated for 48 hrs by CCK8 method; format: functional, cell-based; details: HepG2, 48 h
Huh-7 [17] = assay: Anticancer activity in human Huh-7 cells assessed as change in WNT6 gene expression by KEGG analysis; format: functional, cell-based
Huh-7 [18] = assay: Anticancer activity in human Huh-7 cells assessed as change in TP53 gene expression by KEGG analysis; format: functional, cell-based
Huh-7 [19] = assay: Induction of cell cycle arrest in human Huh-7 cells assessed as accumulation of cells at S phase at 10 uM incubated for 24 hrs by FACscan flow cytometer analysis (reference value: 41.7%); format: functional
Huh-7 [20] = assay: Induction of apoptosis in human Huh-7 cells assessed as necrotic cells at 10 uM incubated for 24 hrs by FITC Annexin V/propidium iodide staining based flow cytometry analysis (reference value: 0.401%); format: functional
Huh-7 [21] = assay: Induction of apoptosis in human Huh-7 cells assessed as late apoptotic cells at 10 uM incubated for 24 hrs by FITC Annexin V/propidium iodide staining based flow cytometry analysis (reference value: 5.19%); format: functional
Huh-7 [22] = assay: Induction of apoptosis in human Huh-7 cells assessed as viable cells at 10 uM incubated for 24 hrs by FITC Annexin V/propidium iodide staining based flow cytometry analysis (reference value: 92.6%); format: functional; details: read-out: Activity
[23] = target: T1, Histone deacetylase (Homo sapiens); assay: Inhibition of HDAC in human HepG2 cells assessed as increase in histone H3 acetylation at 20 uM incubated for 24 hrs by Western blot analysis; format: cell-based
[24] = Hemolytic activity in mouse erythrocytes assessed as hemolysis at 80 uM incubated for 1.5 hrs by microplate reader assay; format: toxicity, cell-based; details: erythrocyte
Huh-7 [25] = assay: Induction of cell cycle arrest in human Huh-7 cells assessed as accumulation of cells at sub G1 phase at 10 uM incubated for 24 hrs by FACscan flow cytometer analysis relative to control; format: functional
Huh-7 [26] = assay: Induction of cell cycle arrest in human Huh-7 cells assessed as accumulation of cells at G2 phase at 10 uM incubated for 24 hrs by FACscan flow cytometer analysis (reference value: 25.74%); format: functional
[27] = target: T1, Histone deacetylase (Homo sapiens); assay: Inhibition of HDAC in human Huh-7 cells assessed as increase in histone H3 acetylation at 20 uM incubated for 24 hrs by Western blot analysis; format: cell-based
Huh-7 [28] = assay: Induction of apoptosis in human Huh-7 cells assessed as early apoptotic cells at 10 uM incubated for 24 hrs by FITC Annexin V/propidium iodide staining based flow cytometry analysis (reference value: 1.85%); format: functional
Huh-7 [29] = assay: Induction of cell cycle arrest in human Huh-7 cells assessed as accumulation of cells at G1 phase at 10 uM incubated for 24 hrs by FACscan flow cytometer analysis (reference value: 39.68%); format: functional
[30] = Drug localization in human Huh-7 cells incubated for 24 hrs by DAPI staining based microscopy analysis; format: ADME, cell-based; details: huh-7, 24 h
[31] = Cytotoxicity activity against human HEK293T cells incubated for 48 hrs by CCK8 method; format: toxicity, cell-based, HEK-293T
[32] = Drug uptake in human Huh-7 cells assessed as cell penetration incubated for 24 hrs by flow cytometry analysis; format: ADME, cell-based; details: huh-7, 24 h
Huh-7 [33] = assay: Induction of cell cycle arrest in human Huh-7 cells assessed as accumulation of cells at S phase at 2.5 uM incubated for 24 hrs by FACscan flow cytometer analysis (reference value: 41.7%); format: functional
Huh-7 [34] = assay: Induction of apoptosis in human Huh-7 cells assessed as viable cells at 5 uM incubated for 24 hrs by FITC Annexin V/propidium iodide staining based flow cytometry analysis (reference value: 92.6%); format: functional; details: read-out: Activity
Huh-7 [35] = assay: Induction of apoptosis in human Huh-7 cells assessed as late apoptotic cells at 5 uM incubated for 24 hrs by FITC Annexin V/propidium iodide staining based flow cytometry analysis (reference value: 5.19%); format: functional
Huh-7 [36] = assay: Induction of apoptosis in human Huh-7 cells assessed as necrotic cells at 5 uM incubated for 24 hrs by FITC Annexin V/propidium iodide staining based flow cytometry analysis (reference value: 0.401%); format: functional
Huh-7 [37] = assay: Induction of cell cycle arrest in human Huh-7 cells assessed as accumulation of cells at G2 phase at 2.5 uM incubated for 24 hrs by FACscan flow cytometer analysis (reference value: 25.74%); format: functional
Huh-7 [38] = assay: Induction of cell cycle arrest in human Huh-7 cells assessed as accumulation of cells at sub G1 phase at 2.5 uM incubated for 24 hrs by FACscan flow cytometer analysis relative to control; format: functional
Huh-7 [39] = assay: Induction of apoptosis in human Huh-7 cells assessed as early apoptotic cells at 5 uM incubated for 24 hrs by FITC Annexin V/propidium iodide staining based flow cytometry analysis (reference value: 1.85%); format: functional
Huh-7 [40] = assay: Induction of cell cycle arrest in human Huh-7 cells assessed as accumulation of cells at G1 phase at 2.5 uM incubated for 24 hrs by FACscan flow cytometer analysis (reference value: 39.68%); format: functional

Row | Structure (SMILES) | IC50 (Histone deacetylase) | IC50 (HT-29) | IC50 (Huh-7 [10]) | IC50 (HepG2) | Activity (Huh-7 [19]) | Activity (Huh-7 [20]) | Activity (Huh-7 [21]) | viability at 10 µM (Huh-7 [22]) | inhibition [23] | Activity (Huh-7 [25]) | Activity (Huh-7 [26]) | inhibition [27] | Activity (Huh-7 [28]) | Activity (Huh-7 [29]) | further results
1 | CC(=O)N[C@@H](CCCNC(=N)N)C(=O)N[C@@H](CC(C)C)C(=O)N[C@@H](CC(C)C)C(=O)N[C@@H](CCCNC(=N)N)C(=O)N[C@@H](CC(C)C)C(=O)N[C@H]1CC[S+](C)Cc2cccc(c2)C[S+](C)CC[C@@H](C(=O)N[C@@H](CC(C)C)C(=O)N[C@@H](CC(C)C)C(=O)N[C@@H](CCCNC(=N)N)C(=O)N[C@@H](CC(C)C)C(=O)NCCCCCC(=O)NO)NC(=O)[C@H](CCCNC(=N)N)NC(=O)[C@H](CC(C)C)NC(=O)[C@H](CCCNC(=N)N)NC1=O (some centres undefined) | 0.31 µM | 54.6 µM | 43.7 µM | 52.2 µM | – | – | – | – | – | – | – | – | – | – | inhibition [1]: Active; Activity (Huh-7 [2]): 18.2%; Activity (Huh-7 [3]): 17.34%; Activity (Huh-7 [4]): Active; Activity (Huh-7 [5]): 33.25%; Activity (Huh-7 [6]): 3.89%; Activity (Huh-7 [7]): 4.97%; Stability [8]: Stable; Activity (Huh-7 [9]): 2.98%; Activity (Huh-7 [11]): 51.86%; Activity (Huh-7 [12]): Active; Activity (Huh-7 [13]): Active; viability at 20 µM (Huh-7 [14]): 73%; Activity (Huh-7 [15]): Active; inhibition [16]: Active; Activity (Huh-7 [17]): Active; Activity (Huh-7 [18]): Active
2 | CC(=O)N[C@@H](CCCNC(=N)N)C(=O)N[C@@H](CC(C)C)C(=O)N[C@@H](CC(C)C)C(=O)N[C@@H](CCCNC(=N)N)C(=O)N[C@@H](CC(C)C)C(=O)N[C@H]1CC[S+](C)Cc2cccc(c2)C[S+](C)CC[C@@H](C(=O)N[C@@H](CC(C)C)C(=O)N[C@@H](CC(C)C)C(=O)N[C@@H](CCCNC(=N)N)C(=O)N[C@@H](CC(C)C)C(=O)O)NC(=O)[C@H](CCCNC(=N)N)NC(=O)[C@H](CC(C)C)NC(=O)[C@H](CCCNC(=N)N)NC1=O (some centres undefined) | > 100 µM | – | – | – | – | – | – | – | – | – | – | – | – | – | –
3 | CSCC[C@H](NC(=O)[C@H](CCCNC(=N)N)NC(=O)[C@H](CC(C)C)NC(=O)[C@H](CCCNC(=N)N)NC(=O)[C@H](CCSC)NC(=O)[C@H](CC(C)C)NC(=O)[C@H](CCCNC(=N)N)NC(=O)[C@H](CC(C)C)NC(=O)[C@H](CC(C)C)NC(=O)[C@H](CCCNC(=N)N)NC(C)=O)C(=O)N[C@@H](CC(C)C)C(=O)N[C@@H](CC(C)C)C(=O)N[C@@H](CCCNC(=N)N)C(=O)N[C@@H](CC(C)C)C(N)=O (Ac-RLLRLMRLRMLLRL-NH2) | > 100 µM | – | – | – | 36.8% | 5.39% | 21.1% | 69.6% | inactive | 6.9% | 6.43% | inactive | 3.93% | 58.07% | Activity [24]: Toxic
4 | CSCC[C@H](NC(=O)[C@H](CCCNC(=N)N)NC(=O)[C@H](CC(C)C)NC(=O)[C@H](CCCNC(=N)N)NC(=O)[C@H](CCSC)NC(=O)[C@H](CC(C)C)NC(=O)[C@H](CCCNC(=N)N)NC(=O)[C@H](CC(C)C)NC(=O)[C@H](CC(C)C)NC(=O)[C@H](CCCNC(=N)N)NC(C)=O)C(=O)N[C@@H](CC(C)C)C(=O)N[C@@H](CC(C)C)C(=O)N[C@@H](CCCNC(=N)N)C(=O)N[C@@H](CC(C)C)C(=O)NCCCCCC(=O)NO (Ac-RLLRLMRLRMLLRL[Ahx]-{NHOH}) | 0.446 µM | 42.6 µM | 28.1 µM | 34 µM | 37.76% | 3.03% | 16.5% | 75% | Active | 10.82% | 9.53% | Active | 5.46% | 47.63% | Drug uptake [30]: Active; IC50 at 48 h [31]: 39.8 µM; Drug uptake [32]: Active
5 | O=C(CCCCCCC(=O)Nc1ccccc1)NO [VORINOSTAT] | – | – | – | – | – | – | – | – | – | – | – | – | – | – | Activity (Huh-7 [33]): 25.97%; viability at 5 µM (Huh-7 [34]): 47.2%; Activity (Huh-7 [35]): 37%; Activity (Huh-7 [36]): 9.35%; Activity (Huh-7 [37]): 18.46%; Activity (Huh-7 [38]): 7.16%; Activity (Huh-7 [39]): 6.4%; Activity (Huh-7 [40]): 46.95%
